The results in this text go back to ChEMBL document CHEMBL1158878, “New phomopsolides from a Penicillium sp” (1997).

Common to all, as to format: functional
The subject of test [1] is Staphylococcus aureus. As to the kind of experiment: Antimicrobial activity against Staphylococcus aureus at 100 ug by antimicrobial disk assay. Particulars: read-out: IZ.
The test system of test [2] is Staphylococcus aureus. In words: Antimicrobial activity against Staphylococcus aureus at 25 ug by antimicrobial disk assay. To be noted: read-out: IZ.
Test [3] deals with Staphylococcus aureus. In words: Antimicrobial activity against Staphylococcus aureus at 50 ug by antimicrobial disk assay. To be noted: read-out: IZ.
The test system of test [4] is Staphylococcus aureus. In words: Antimicrobial activity against Staphylococcus aureus at 10 units by antimicrobial disk assay.
The subject of test [5] is Staphylococcus aureus. In words: Antimicrobial activity against Staphylococcus aureus at 10 ug by antimicrobial disk assay. To be noted: read-out: IZ.
In test [6] the test system is Staphylococcus aureus. As to the kind of experiment: Antimicrobial activity against Staphylococcus aureus at 30 ug by antimicrobial disk assay. Particulars: read-out: IZ.

For `C/C=C/C1=C(C)C(=O)C(C)(O)O1` (centres undefined), the zone of inhibition at 100 µg/disc in the test on Staphylococcus aureus [1] was determined as 9 mm.
Regarding `C/C=C(\C)C(=O)O[C@H]1C=CC(=O)O[C@H]1/C=C/C(=O)C(C)O` (some centres undefined), the zone of inhibition at 25 µg/disc with Staphylococcus aureus [2] was found to be 22 mm.
As to `C/C=C(\C)C(=O)O[C@H]1C=CC(=O)O[C@H]1CCC(=O)C(C)O` (some centres undefined) [6,7-DIHYDROPHOMOPSOLIDE A], in the test on Staphylococcus aureus [3], the zone of inhibition at 50 µg/disc came to 9 mm.
For `C/C=C(\C)C(=O)O[C@H]1C=CC(=O)O[C@H]1CC[C@H](O)[C@H](C)O` [6,7-DIHYDROPHOMOPSOLIDE B], in the test with Staphylococcus aureus [1], the zone of inhibition at 100 µg/disc amounted to 10 mm.
Consider `CC1(C)S[C@@H]2[C@H](NC(=O)Cc3ccccc3)C(=O)N2[C@H]1C(=O)O` [PENICILLIN G], for which the “inhibition zone (IZ)” value with Staphylococcus aureus [4] was found to be 22 mm.
Turning to `C/C=C(\C)C(=O)O[C@H]1C=CC(=O)O[C@H]1/C=C\C(=O)C(C)O` (some centres undefined) [PHOMOPSOLIDE A], the zone of inhibition at 25 µg/disc with Staphylococcus aureus [2] came out at 22 mm.
On the same count and under the same terms, to `C/C=C(\C)C(=O)O[C@H]1C=CC(=O)O[C@H]1/C=C/[C@H](O)[C@H](C)O` [PHOMOPSOLIDE B] belongs 20 mm.
With `CN[C@@H]1[C@H](O[C@H]2[C@H](O[C@H]3[C@H](O)[C@@H](O)[C@H](N=C(N)N)[C@@H](O)[C@@H]3N=C(N)N)O[C@@H](C)[C@]2(O)C=O)O[C@@H](CO)[C@H](O)[C@H]1O` [STREPTOMYCIN], the zone of inhibition at 10 µg/disc in the test with Staphylococcus aureus [5] is 13 mm.
Consider `CN(C)[C@@H]1C(O)=C(C(N)=O)C(=O)[C@@]2(O)C(O)=C3C(=O)c4c(O)cccc4[C@@](C)(O)[C@H]3C[C@@H]12` [TETRACYCLINE], for which the zone of inhibition at 30 µg/disc in the test on Staphylococcus aureus [6] turned out to be 38 mm.
